Measured values reported in publication PMC6043506, “Investigating molecular interactions between oxidized neuroglobin and cytochrome c” (Scientific Reports, 2018).
Where two headings read alike, the source gives them in different places.

B1: hNgb: ferric human Ngb; six-coordinated heme protein; PDB ID 4MPM (Chain B) (protein, UniProt Q9NPG2 1-151, looked up)
Neuroglobin: MERPEPELIRQSWRAVSRSPLEHGTVLFARLFALEPDLLPLFQYNCRQFSSPEDCLSSPEFLDHIRKVMLVIDAAVTNVEDLSSLEEYLASLGRKHRAVGVKLSSFSTVGESLLYMLEKCLGPAFTPATRAAWSQLYGAVVQAMSRGWDGE
modifications: ferric heme

What was measured:
[1] = system: PhNgb1-Wt binding to Cyt c; test: SPR inhibition experiment: PhNgb1-Wt binding to immobilized Cyt c in presence of PCyt c; parameters: species or system Equine heart; conditions: mixture of PhNgb1-Wt and PCyt c in 1:2 molar ratio, Fig. 4B, 60 s injection
Protocol: We conducted SPR experiments with mutated peptides. […] (hNgb) and […] (hNgb) together take part in binding to […] (Cyt c), making a strong bonding as predicted by simulations. We could not perform quantitative investigations (via determination of KD values) for the mutated peptides due to solubility issues at higher concentrations. […] This experiment further confirms the involvement of the predicted amino acid […]) in the hNgb-Cyt c complex formation. […] The SPR experiments were performed using a Biacore T200 SPR instrument (GE Healthcare). Cyt c, which was used as a ligand, was immobilized onto the CM5 chip up to a level of ~9000 Response Units (RU) in the presence of 10 mM sodium acetate buffer at pH 5.5. A standard amine coupling chemistry according to the manufacturer's recommended protocol (GE Healthcare) was used to immobilize Cyt c. HBS-P+ buffer was diluted 10X to 10 mM HEPES pH 7.4, 150 mM NaCl, and 0.05% v/v surfactant P20 (HBS-P) in ddH2O and filtered through a […] polystyrene membrane filter. HBS-P was used as the immobilization running buffer. The peptides were used as analytes to inject over the Cyt c-immobilized CM5 chip surface in various concentrations in an HBS-P+1% DMSO buffer. HBS-P+1% DMSO was used as the running buffer in the analyte-ligand binding experiments. […] All analytes were injected in duplicate in each cycle. […]

Cyt c = target: T1, Cyt c (Equus caballus, UniProt P00004); test: SPR qualitative comparison of peptide bindings to immobilized Cyt c; assay type: binding, Equine heart; conditions: for binding to Cyt c compared to PhNgb2-Wt (qualitative) / SPR signal compared to PhNgb1-Wt (qualitative) / binding to Cyt c (qualitative): SPR sensorgrams, HBS-P+1% DMSO, pH 7.4, 60 s injection; for binding to Cyt c compared to PhNgb2-Wt (qualitative): Fig. 4C; for SPR signal compared to PhNgb1-Wt (qualitative) / binding to Cyt c (qualitative): Fig. 4A; for binding to Cyt c (qualitative): repeated at least two times
T1 construct: Equine heart Cyt c and dimethyl sulfoxide (DMSO) were purchased from Sigma Aldrich; purchased Sigma Aldrich; host or cells: equine heart (tissue-derived, as the product name says)
Protocol: The peptides were dissolved in 100% DMSO and further diluted in the running buffer (10 mM HEPES pH 7.4, 150 mM NaCl, and 0.05% v/v surfactant P20 supplemented at 1% v/v DMSO) and injected over the Cyt c-immobilized surface at various concentrations.
Equine heart Cyt c and dimethyl sulfoxide (DMSO) were purchased from Sigma Aldrich. The amine coupling kit, Series S sensor chip CM5, and HBS-P+ buffer (0.1 M HEPES, 1.5 M NaCl, and 0.5% v/v surfactant P20) were purchased from GE Healthcare.
The SPR experiments were performed using a Biacore T200 SPR instrument (GE Healthcare). Cyt c, which was used as a ligand, was immobilized onto the CM5 chip up to a level of ~9000 Response Units (RU) in the presence of 10 mM sodium acetate buffer at pH 5.5. A standard amine coupling chemistry according to the manufacturer’s recommended protocol (GE Healthcare) was used to immobilize Cyt c. HBS-P+ buffer was diluted 10X to 10 mM HEPES pH 7.4, 150 mM NaCl, and 0.05% v/v surfactant P20 (HBS-P) in ddH2O and filtered through a […] polystyrene membrane filter. HBS-P was used as the immobilization running buffer. The peptides were used as analytes to inject over the Cyt c-immobilized CM5 chip surface in various concentrations in an HBS-P+1% DMSO buffer. HBS-P+1% DMSO was used as the running buffer in the analyte-ligand binding experiments. […] All analytes were injected in duplicate in each cycle. The kinetics experiments were repeated for three times. All qualitative experiments, including inhibition experiments were repeated at least two times with the wild type peptides injected as positive controls in each experiment.
VMD[34] was used to analyze and visualize the structure and simulation trajectories. The total interaction energy was calculated using NAMD energy plugin available in VMD. Each frame in the NVT simulation trajectory was saved at every 200 ps. An atomic distance of 3.5 Å and angle cutoff of 30 degrees were used to trace hydrogen bonding and the same atomic distance of 3.5 Å was used as the cut off to analyze interfacial contacts and salt bridges. For contacts analysis, only residues that show contacts for more than 1000 frames were considered. Carma[38] was used to determine the radius of gyration (Rg) and to perform PCA as well as PCA-based cluster analyses. GraphPad prism (GraphPad Software, Inc.) was used to generate the graphs. The bonding distances between D73 (in hNgb, atom OD2) and K72 (in Cyt c, atom NZ), T77 (in hNgb, atom OG1) and K72 (in Cyt c, atom NZ), E87 (in hNgb, atom OE2) and K27 (in Cyt c, atom NZ) as well as between E86 (in hNgb, atom OE2) and K27 (in Cyt c, atom NZ) were plotted. All graphs obtained from analyses of MD simulation trajectories were averaged with 25 neighboring points and 4th order smoothing polynomial using the GraphPad prism software. Biacore T200 evaluation software version 1.0 (GE Healthcare) was used to analyze the SPR sensorgrams.

ferric Cyt c = conditions: SPR, nanopore-based nanopipettes, ITC; ferric hNgb and ferric Cyt c; cited from earlier work
Text: Electrochemical impedance spectroscopy measurements have also confirmed the formation of an hNgb-Cyt c complex. Computational docking is useful to investigate the complex formation between proteins. Several computational docking studies have bee ...

caspase 9 activation = conditions: binding of Ngb to Cyt c alone, no redox reaction required, cited from earlier work
Text: Cytochrome c (Cyt c), which is another heme protein[13], is a known Ngb binding partner[12],[14]. This mitochondrial heme protein triggers cell apoptosis during apoptotic cell signaling. During ischemic insults, the cellular apoptotic pathway is activated, leading to the release of ferric Cyt c, which is an essential component of the apoptosome, into the cytoplasm[16]–[18]. […] Importantly, this K72 residue takes part in interactions of Cyt c with apoptotic protease-activation factor-1[31]. […] There ...

T1 sequence (P00004 whole entry): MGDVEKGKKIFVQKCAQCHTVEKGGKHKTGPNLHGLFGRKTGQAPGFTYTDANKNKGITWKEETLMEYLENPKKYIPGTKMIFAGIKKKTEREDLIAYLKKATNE

Row | Molecule | binding to Cyt c compared to PhNgb2-Wt (qualitative) (Cyt c) | SPR signal compared to PhNgb1-Wt (qualitative) (Cyt c) | binding to Cyt c (qualitative) (Cyt c) | further results
1 | LENPKKYIP [PCyt c, peptide with amino acids L68 to P76 in Cyt c] | – | – | – | inhibition of PhNgb1-Wt binding (qualitative) [1]: diminished signal as compared to PhNgb1-Wt signal; binding of PCyt c to immobilized Cyt c (qualitative) (Cyt c; SPR): does not bind to immobilized Cyt c
2 | SSLAAYLAS [PhNgb2-M2] | comparable binding | – | – | –
3 | MLVIDAAVANVED [PhNgb1-M1] | – | weaker SPR signals as compared to SPR signals for PhNgb1-Wt | bind to Cyt c | –
4 | SSLEAYLAS [PhNgb2-M1] | stronger binding | – | – | –
5 | MLVIAAAVTNVED [PhNgb1-M2] | – | weaker SPR signals as compared to SPR signals for PhNgb1-Wt | bind to Cyt c | –
6 | B1 | – | – | – | affinity to ferric Cyt c (ferric Cyt c): micromolar affinity; effect on caspase 9 activation (caspase 9 activation): enough to suppress caspase-9 activation; effect on caspase 9 activation (caspase 9 activation; listed as Ngb): sufficient to block the Cyt c-induced caspase 9 activation
